Laboratory results as given in patent publication US20020137023A1, “Methods and compositions for targeting compounds to muscle” (Auburn University, priority 1997, published 2002).

Assays:
Assay in all cases: in vivo phage display selection, frequency of selected clone
cardiac muscle [1] = test system: cardiac muscle; parameters: species or system dog; details: for FREQUENCY (of selected phage clone among clones sequenced): 3 in vivo rounds in cardiac muscle, dog
Description: (§1) In round one of selection, the phage library is injected intravenously and multiple tissues may be recovered. In subsequent rounds, the phage purified from specific tissues recovered in round one is injected intravenously, and thus, only that tissue is recovered. In rounds 2-4, separate animals are needed for each tissue being examined. After the last round, the phages are plated on a lawn of bacteria and a number of phage plaques are isolated and the DNA sequenced. Of these a certain percentage will represent the dominant selected clone. FIG. 2 provides a scheme for selection of tissue specific phage.
(§2) In the Table, “Four rounds of selection . . . ,” means that in round 1, the phage library was injected intravenously, and a specific tissue was recovered. In round 1, multiple tissues are recovered from one animal (skeletal muscle, cardiac muscle, etc.). In any subsequent round, the phage purified from a specific tissue is injected intravenously, and only that tissue is recovered. Thus, in rounds 2-4, separate animals are needed for each tissue being examined. After the last round, the phage are plated on a lawn of bacteria and a number of phage plaques are isolated and the DNA sequenced. This is represented in the Table by “number of phage clones sequenced.” Of these, a certain percentage will represent the dominant selected clone.
(§3) The experiments disclosed herein, represent the first in vivo selection in any species other than mouse. Generally, phage was left to circulate for one hour.

skeletal muscle = test system: skeletal muscle
Description: as §1, §2, §3

neuro muscular tissue = details: 4 in vivo rounds in neural muscular tissue; mouse
Description: as §1, §2, §3

murine muscle = test system: murine muscle; parameters: species or system mouse; details: four rounds in vivo
Description: as §1
In the Table, “Four rounds of selection . . . ,” means that in round 1, the phage library was injected intravenously, and a specific tissue was recovered. In round 1, multiple tissues are recovered from one animal (skeletal muscle, cardiac muscle, etc.). In any subsequent round, the phage purified from a specific tissue is injected intravenously, and only that tissue is recovered. Thus, in rounds 2-4, separate animals are needed for each tissue being examined. After the last round, the phage are plated on a lawn of bacteria and a number of phage plaques are isolated and the DNA sequenced. This is represented in the Table by “number of phage clones sequenced.” Of these, a certain percentage will represent the dominant selected clone. […]

cardiac muscle [2] = details: mouse
Description: as §1, §2, §3

[3] = 4 in vivo rounds in skeletal muscle, mouse
[4] = 4 in vivo rounds in cardiac muscle

For “APVHRPL (Phage display library peptides) [peptide selected via two rounds in vivo, in canine cardiac muscle]”, the “fraction in which the selected clone was found” value (cardiac muscle [1]; two rounds in vivo, in canine cardiac muscle) was “found in the washed tissue fraction”.
For “ASSLNIA (Phage display library peptides) [Ala-Ser-Ser-Leu-Asn-Ile-Ala]”, the “FREQUENCY (of selected phage clone among clones sequenced)” value (skeletal muscle; 3 in vitro rounds on C2C12 myotubes followed by 2 in vivo rounds on skeletal muscle, mouse) was 40%.
In the case of “CGHHPVYAC (Phage display library peptides) [Cys-Gly-His-His-Pro-Val-Tyr-Ala-Cys]”, the “FREQUENCY (of selected phage clone among clones sequenced)” value (cardiac muscle [1]) is reported as 20% and the “FREQUENCY (of selected phage clone among clones sequenced)” value (skeletal muscle; tissue skeletal muscle, dog) is reported as 100%.
For “GETRAPL (Phage display library peptides) [Gly-Glu-Thr-Arg-Ala-Pro-Leu]”, the “FREQUENCY (of selected phage clone among clones sequenced)” value (neuro muscular tissue) was 12% and the “FREQUENCY (of selected phage clone among clones sequenced)” value (skeletal muscle; [3]) was 37%.
With “HAIYPRH (Phage display library peptides) [peptide selected via four rounds in vivo, in murine muscle]” the “frequency of selected clone” value (murine muscle) was 4%.
With “HVHTLPT (Phage display library peptides) [His-Val-His-Thr-Leu-Pro-Thr]” the “FREQUENCY (of selected phage clone among clones sequenced)” value (cardiac muscle [2]; [4]) was 11%.
With “KAPLTPV (Phage display library peptides) [peptide selected by 3 in vivo phage rounds in dog cardiac muscle]” the “FREQUENCY (of selected phage clone among clones sequenced)” value (cardiac muscle [1]) was 8%.
With “MHHTRFY (Phage display library peptides) [Met-His-His-Thr-Arg-Phe-Tyr]” the “FREQUENCY (of selected phage clone among clones sequenced)” value (cardiac muscle [2]; [4]) was 8%.
With “QWHGPLH (Phage display library peptides) [Gln-Trp-His-Gly-Pro-Leu-His]” the “FREQUENCY (of selected phage clone among clones sequenced)” value (cardiac muscle [2]; 3 in vivo rounds in cardiac muscle) was 20%.
For “SGTLFAN (Phage display library peptides) [peptide selected by 3 in vivo phage rounds in dog cardiac muscle]”, the “FREQUENCY (of selected phage clone among clones sequenced)” value (cardiac muscle [1]) was 28%.
“WDANGKT (Phage display library peptides) [Trp-Asp-Ala-Asn-Gly-Lys-Thr]” was tested, and the “FREQUENCY (of selected phage clone among clones sequenced)” value (skeletal muscle; 2 in vitro on C2C12 myotubes followed by 2 in vivo rounds on skeletal muscle, mouse + dog) was 10% and the “FREQUENCY (of selected phage clone among clones sequenced)” value (skeletal muscle; [3]) was 19%.
